In patent publication US8268961B2, “Antibacterial peptides and analogues thereof” (Universita Degli Studi di Siena, priority 2004, dated 2012):
“Also recorded” adds a separate entry of the source. Read-outs that look alike come from different tables or passages of the source. Positions of bridges follow the written chain, without caps; N, C: chain ends. Chains are numbered I, II in the order given. No end group written: not given here.

What was measured:
[1] = test system: Klebsiella pneumoniae W03NO0078; type: cell-based
Outline: (§1)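 cation-suppl. MH broth, std microdilution (NCCLS); 5×10^4 CFU/well; 24 h, 37° C; visual read; MIC = lowest conc. with no visible growth, molar units.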

[2] = test system: Pseudomonas aeruginosa 885149; type: cell-based; details: 885149
Outline: as §1

[3] = test system: Proteus mirabilis W03VA1144; type: cell-based
Outline: as §1

[4] = test system: Escherichia coli W03NO0013; type: cell-based
Outline: as §1

[5] = test system: Acinetobacter baumannii AB1MG; type: cell-based
Outline: as §1

[6] = test system: Staphylococcus aureus ATCC 25923; type: cell-based; details: Staphylococcus aureus ATCC 25923, reference strain
Outline: (§2)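 MIC, given in molar units, was taken as the lowest concentration without visible growth after 24 h at 37° C. Testing followed the NCCLS microdilution method using cation-supplemented Mueller-Hinton broth and 5×10^4 CFU per well.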

[7] = test system: Escherichia coli ATCC 25922; type: cell-based; details: ATCC 25922
Outline: as §1

[8] = test system: Enterobacter cloacae W03AN0041; type: cell-based
Outline: as §1

[9] = test system: Escherichia coli W99FI0077; type: cell-based; details: W99FI0077
Outline: as §1

[10] = test system: Klebsiella pneumoniae W03BG0019; type: cell-based
Outline: as §1

[11] = test system: Burkholderia cepacia SMC71; type: cell-based
Outline: as §1

[12] = test system: Enterobacter aerogenes W03BG0067; type: cell-based
Outline: as §1

[13] = test system: Klebsiella pneumoniae W99FI0057; type: cell-based; details: W99FI0057
Outline: as §1

[14] = test system: Acinetobacter baumannii AB7MG; type: cell-based
Outline: as §1

[15] = test system: Pseudomonas aeruginosa VA463/98; type: cell-based
Outline: as §1

[16] = test system: Pseudomonas aeruginosa ATCC27853; type: cell-based; details: ATCC27853
Outline: as §2

[17] = test system: Escherichia coli W03BG0025; type: cell-based
Outline: as §1

[18] = test system: Citrobacter freundii W99FI00007; type: cell-based
Outline: as §1

[19] = test system: Pseudomonas aeruginosa 891; type: cell-based; details: 891
Outline: as §1

[20] = test system: Klebsiella oxytoca W99FI00049; type: cell-based
Outline: as §1

[21] = test system: murine macrophage cells J774 A.1; assay: Cytotoxicity test by MTT; type: cell-based, mouse
Outline: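 J774 A.1 cells in DMEM with 10% foetal bovine serum and antibiotics were exposed to filtered peptides at various concentrations overnight at 37 °C. Viability read by MTT (0.5 mg/ml, 90 min), solubilised in SDS 10%/DMF 45% at pH 4.5, absorbance at 595/650 nm.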

[22] = LPS binding by Plasmon Surface Resonance (Biacore); details: M6 immobilised on BIACORE sensorchip
Experimental: FIG. 11. Binding analysis between MAP M6 peptide and LPS in BIACORE. […] On the y-axis are shown the Units of Response derived from the binding between LPS and M6 as a function of time expressed in seconds (on the x-axis)
The ability of MAP peptides to perforate the bacterial membrane was evaluated measuring the activity of cytoplasmatic beta-galactosidase (24) in surpernatants of E. coli strain ML-35 incubated with the peptide and using p-nitrophenyl-β-D-galactopyranoside (pNPG) as a substrate. pNPG is digested by beta-galactosidase, therefore releasing p-nitro-phenolate detectable by spectrophotometric reading at 420 nm (FIG. 10). […] The activity of dendrimeric peptides against the inner membrane was evaluated at concentrations of 16, 32 and 64 μg/ml. All dendrimeric peptides permeabilized bacterial inner membrane at 16 μg/ml (FIG. 9). Permeabilization occurred after a lag of less than 1 minute, and the rate of permeabilization depended on peptide concentration (not shown). Moreover, the ability of the M6 MAP peptide to bind the bacterial lipopolysaccharide (LPS) was assayed by Plasmon Surface Resonance in a Biacore 1000 instrument (FIG. 11) using a protocol perfected by the authors (26).

## I: QKKIRVRLSAKKA-OH / II: QKKIRVRLSAK / III: QKKIRVRLSA / IV: QKKIRVRLSA (amide I:11-IV:C, I:12-II:C, II:11-III:C) [M6, QKKIRVRLSA]
[1]
  MIC (Molarity): 3 µM
[2]
  MIC (Molarity): 1.5 µM
[3]
  MIC (Molarity): 12 µM
[4]
  MIC (Molarity): 1.5 µM
[5]
  MIC (Molarity): 3 µM
[6]
  MIC (Molarity): >4.9e-05 M
[6]; listed as QKKIRVRLSA
  MIC (Molarity): ~10^−5 M
[7]
  MIC (Molarity): 1.5 µM
[8]
  MIC (Molarity): 0.76 µM
[9]
  MIC (Molarity): 1.5 µM
[10]
  MIC (Molarity): 1.5 µM
[11]
  MIC (Molarity): 12 µM
[12]
  MIC (Molarity): 1.5 µM
[13]
  MIC (Molarity): 0.76 µM
[14]
  MIC (Molarity): 6 µM
[15]
  MIC (Molarity): 0.76 µM
[16]
  MIC (Molarity): 0.76 µM
[17]
  MIC (Molarity): 1.5 µM
[18]
  MIC (Molarity): 3 µM
[19]
  MIC (Molarity): 1.5 µM
[20]
  MIC (Molarity): 12 µM
[21]
  Concentration at and over which a drop in cell viability was evident (MTT): ≥ 125 µg/mL
  Vitality of J774 A.1 cells as the concentration of MAP peptides increases (MTT): decreases
[22]
  Binding to bacterial lipopolysaccharide (LPS), sensorgram: effectively binds; also recorded: rapid binding
